Measured values published in ChEMBL document CHEMBL4828767, “Identification of Clinical Candidate M2698, a Dual p70S6K and Akt Inhibitor, for Treatment of PAM Pathway-Altered Cancers” (J Med Chem, 2021).

Legend:
[1] = molecular target: RAC-alpha serine/threonine-protein kinase (Homo sapiens, UniProt P31749)
[2] = cells; type: cell-based; settings: Homo sapiens, MDA-MB-468
[3] = molecular target: Ribosomal protein S6 kinase beta-1 (Homo sapiens, UniProt P23443, T412E); type: cell-based, Sf21
[4] = molecular target: Aurora kinase B/Inner centromere protein (Homo sapiens, UniProt Q96GD4); test: biochemical; type: cell-based, Sf21
Aurora kinase B/Inner centromere protein, sequence (Q96GD4 whole entry): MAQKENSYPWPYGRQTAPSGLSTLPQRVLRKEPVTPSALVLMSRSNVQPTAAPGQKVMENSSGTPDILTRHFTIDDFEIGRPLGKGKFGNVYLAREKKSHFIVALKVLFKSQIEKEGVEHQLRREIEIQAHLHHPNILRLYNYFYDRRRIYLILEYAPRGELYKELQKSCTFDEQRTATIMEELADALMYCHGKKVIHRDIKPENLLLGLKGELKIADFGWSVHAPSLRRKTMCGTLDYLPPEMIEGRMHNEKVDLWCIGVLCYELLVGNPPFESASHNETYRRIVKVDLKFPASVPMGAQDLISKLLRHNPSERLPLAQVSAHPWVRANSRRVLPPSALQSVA
Aurora kinase B/Inner centromere protein, sequence (Q9NQS7 whole entry, further chain): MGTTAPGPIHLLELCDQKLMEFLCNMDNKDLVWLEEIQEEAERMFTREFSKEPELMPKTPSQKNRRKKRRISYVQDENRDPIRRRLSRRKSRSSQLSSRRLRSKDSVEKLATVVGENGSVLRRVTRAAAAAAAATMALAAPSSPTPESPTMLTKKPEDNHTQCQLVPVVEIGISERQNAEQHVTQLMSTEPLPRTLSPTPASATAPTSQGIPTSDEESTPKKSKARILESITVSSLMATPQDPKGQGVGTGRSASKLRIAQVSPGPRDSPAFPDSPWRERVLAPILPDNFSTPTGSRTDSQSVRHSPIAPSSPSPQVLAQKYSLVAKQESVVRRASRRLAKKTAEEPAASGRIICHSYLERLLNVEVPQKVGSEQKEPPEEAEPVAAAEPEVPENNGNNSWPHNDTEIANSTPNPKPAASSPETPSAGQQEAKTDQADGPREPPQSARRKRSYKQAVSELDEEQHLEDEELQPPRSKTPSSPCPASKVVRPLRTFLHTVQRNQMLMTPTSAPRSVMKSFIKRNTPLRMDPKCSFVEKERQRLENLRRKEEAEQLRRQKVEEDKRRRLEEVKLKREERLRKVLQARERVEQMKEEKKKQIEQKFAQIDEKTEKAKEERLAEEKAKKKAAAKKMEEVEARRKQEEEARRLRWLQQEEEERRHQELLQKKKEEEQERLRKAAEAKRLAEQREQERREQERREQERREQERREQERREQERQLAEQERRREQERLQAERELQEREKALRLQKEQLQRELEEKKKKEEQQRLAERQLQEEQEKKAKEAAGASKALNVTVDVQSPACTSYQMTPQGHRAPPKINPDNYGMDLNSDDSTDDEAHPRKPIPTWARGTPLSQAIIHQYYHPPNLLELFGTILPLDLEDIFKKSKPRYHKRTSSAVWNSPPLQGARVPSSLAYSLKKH

[5] = human, microsomes
Description: Intrinsic clearance in human microsomes

[6] = in vivo; settings: mouse
[7] = mouse, microsomes
Description: Intrinsic clearance in mouse microsomes

[8] = in vitro; settings: rat, plasma
Description: Protein binding in rat plasma assessed as unbound fraction

[9] = molecular target: hERG (KCNH2) (Homo sapiens, UniProt Q12809); test: in vitro
hERG (KCNH2), sequence (Q12809 whole entry): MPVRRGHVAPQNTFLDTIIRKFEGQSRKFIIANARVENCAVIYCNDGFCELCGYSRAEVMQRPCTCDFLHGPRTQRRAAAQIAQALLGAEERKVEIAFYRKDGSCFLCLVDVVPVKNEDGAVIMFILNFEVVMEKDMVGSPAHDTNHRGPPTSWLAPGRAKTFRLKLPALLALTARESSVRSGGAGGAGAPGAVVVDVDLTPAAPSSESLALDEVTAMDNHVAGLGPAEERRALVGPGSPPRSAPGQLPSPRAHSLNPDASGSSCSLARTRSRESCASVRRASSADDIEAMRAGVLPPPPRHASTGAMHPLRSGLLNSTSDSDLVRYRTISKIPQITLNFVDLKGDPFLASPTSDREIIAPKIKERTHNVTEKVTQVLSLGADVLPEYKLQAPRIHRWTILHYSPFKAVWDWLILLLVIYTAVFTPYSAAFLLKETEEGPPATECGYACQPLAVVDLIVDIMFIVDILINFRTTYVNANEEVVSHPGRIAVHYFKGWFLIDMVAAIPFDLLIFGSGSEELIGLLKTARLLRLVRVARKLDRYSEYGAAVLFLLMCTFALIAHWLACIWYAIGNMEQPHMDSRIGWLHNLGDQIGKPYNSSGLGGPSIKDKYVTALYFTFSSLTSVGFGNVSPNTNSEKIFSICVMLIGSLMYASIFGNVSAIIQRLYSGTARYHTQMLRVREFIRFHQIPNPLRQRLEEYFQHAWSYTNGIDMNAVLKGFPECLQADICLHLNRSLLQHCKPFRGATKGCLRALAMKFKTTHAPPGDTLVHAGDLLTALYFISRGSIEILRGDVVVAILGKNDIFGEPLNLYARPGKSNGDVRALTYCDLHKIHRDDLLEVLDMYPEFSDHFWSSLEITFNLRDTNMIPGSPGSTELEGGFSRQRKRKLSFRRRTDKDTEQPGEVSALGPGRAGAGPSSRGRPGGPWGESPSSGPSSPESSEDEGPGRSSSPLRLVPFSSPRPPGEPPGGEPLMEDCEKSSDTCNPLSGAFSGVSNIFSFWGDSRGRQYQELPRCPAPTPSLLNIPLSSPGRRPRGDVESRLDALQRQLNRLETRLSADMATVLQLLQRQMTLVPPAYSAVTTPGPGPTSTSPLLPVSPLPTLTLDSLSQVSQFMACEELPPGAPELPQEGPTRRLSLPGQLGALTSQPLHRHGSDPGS
Description: Inhibition of human ERG at 10 uM relative to control

[10] = in vitro; settings: human, Caco-2
[11] = rat, microsomes
Description: Intrinsic clearance in rat microsomes

[12] = in vivo; settings: mouse, po
Description: Oral bioavailability in mouse

[13] = in vivo; settings: mouse; remark: listed apart in the source
[14] = buffer, pH 7.4
Description: Thermodynamic solubility of compound at pH 7.4

[15] = in vitro; settings: mouse, plasma
Description: Protein binding in mouse plasma assessed as unbound fraction

[16] = system: MDA-MB-468; test: cells; type: functional, cell-based; settings: Homo sapiens, MDA-MB-468, 96 h
Description: Antiproliferative activity against human MDA-MB-468 cells incubated for 96 hrs by luminescence method

[17] = molecular target: Cytochrome P450 2C9 (Homo sapiens, UniProt P11712)
Cytochrome P450 2C9, sequence (P11712 whole entry): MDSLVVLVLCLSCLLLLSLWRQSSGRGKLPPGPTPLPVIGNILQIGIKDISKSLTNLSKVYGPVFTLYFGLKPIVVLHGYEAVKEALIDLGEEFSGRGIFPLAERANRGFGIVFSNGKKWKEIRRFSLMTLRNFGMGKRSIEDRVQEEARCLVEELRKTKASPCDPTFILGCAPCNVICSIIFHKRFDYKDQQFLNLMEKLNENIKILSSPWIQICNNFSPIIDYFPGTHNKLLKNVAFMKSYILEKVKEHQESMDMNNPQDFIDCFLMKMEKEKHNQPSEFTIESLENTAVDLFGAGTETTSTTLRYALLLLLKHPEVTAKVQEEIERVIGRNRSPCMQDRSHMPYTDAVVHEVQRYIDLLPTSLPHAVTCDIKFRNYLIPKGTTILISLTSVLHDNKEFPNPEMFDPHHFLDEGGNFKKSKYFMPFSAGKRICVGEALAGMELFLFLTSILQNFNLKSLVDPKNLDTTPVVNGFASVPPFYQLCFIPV
Description: Inhibition of CYP2C9 (unknown origin)

[18] = in vitro; settings: human, plasma
Description: Protein binding in human plasma assessed as unbound fraction

[19] = in vivo; settings: rat
[20] = in vivo; settings: dog
[21] = in vivo; settings: rat, po
Description: Oral bioavailability in rat

[22] = in vivo; settings: dog; remark: listed apart in the source
Description: Volume of distribution at steady state in dog

[23] = in vivo; settings: cynomolgus monkey
Description: Clearance in cynomolgus monkey

[24] = in vivo; settings: dog, po
Description: Oral bioavailability in dog

[25] = in vitro; settings: human, Caco-2; remark: listed apart in the source
[26] = in vivo; settings: cynomolgus monkey, po
Description: Oral bioavailability in cynomolgus monkey

[27] = in vivo; settings: cynomolgus monkey; remark: listed apart in the source
Description: Volume of distribution at steady state in cynomolgus monkey

[28] = in vivo; settings: cynomolgus monkey; remark: listed apart in the source
Description: Half life in cynomolgus monkey

[29] = in vivo; settings: rat; remark: listed apart in the source
Description: Volume of distribution at steady state in rat

[30] = in vivo; settings: mouse; remark: listed apart in the source
Description: Volume of distribution at steady state in mouse

[31] = in vivo; settings: dog; remark: listed apart in the source
[32] = in vivo; settings: rat; remark: listed apart in the source
[33] = physchem; settings: octanol/water
Description: Lipophilicity, logP of compound

RAC-alpha serine/threonine-protein kinase, sequence (P31749 whole entry): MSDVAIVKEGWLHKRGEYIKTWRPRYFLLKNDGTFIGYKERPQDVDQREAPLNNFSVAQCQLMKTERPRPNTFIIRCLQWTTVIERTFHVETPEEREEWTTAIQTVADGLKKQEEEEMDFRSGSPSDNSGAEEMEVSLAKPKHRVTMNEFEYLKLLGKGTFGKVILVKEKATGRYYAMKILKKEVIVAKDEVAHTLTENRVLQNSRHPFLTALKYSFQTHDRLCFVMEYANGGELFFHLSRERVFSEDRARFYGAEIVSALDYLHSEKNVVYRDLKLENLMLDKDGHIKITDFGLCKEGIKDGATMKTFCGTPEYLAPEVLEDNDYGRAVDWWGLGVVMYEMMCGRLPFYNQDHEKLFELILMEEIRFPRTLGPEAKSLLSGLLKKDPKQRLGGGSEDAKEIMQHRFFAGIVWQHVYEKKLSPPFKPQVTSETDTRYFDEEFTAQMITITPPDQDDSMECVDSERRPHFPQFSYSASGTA
Ribosomal protein S6 kinase beta-1, sequence (P23443 whole entry T412E): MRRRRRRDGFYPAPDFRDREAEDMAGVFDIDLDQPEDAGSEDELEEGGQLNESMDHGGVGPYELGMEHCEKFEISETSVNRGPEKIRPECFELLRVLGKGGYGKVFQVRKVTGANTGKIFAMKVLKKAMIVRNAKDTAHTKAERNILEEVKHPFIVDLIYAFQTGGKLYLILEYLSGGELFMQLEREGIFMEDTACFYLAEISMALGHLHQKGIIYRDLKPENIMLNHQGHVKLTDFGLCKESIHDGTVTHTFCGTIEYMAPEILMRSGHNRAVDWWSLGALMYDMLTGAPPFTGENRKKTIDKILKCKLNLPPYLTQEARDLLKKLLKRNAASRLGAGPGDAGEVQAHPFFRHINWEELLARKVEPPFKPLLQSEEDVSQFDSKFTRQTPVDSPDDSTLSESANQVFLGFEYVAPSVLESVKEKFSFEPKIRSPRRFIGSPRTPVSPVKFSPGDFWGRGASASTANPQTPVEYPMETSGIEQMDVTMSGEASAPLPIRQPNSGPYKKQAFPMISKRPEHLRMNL

**Q.** With `NC(=O)c1cccc2c(N[C@H](CN3CCC3)c3cccc(Cl)c3)ncnc12` as the compound, how does the IC50 [1] read?
**A.** The IC50 was 14 nM.

**Q.** And the IC50 [2]?
**A.** Its IC50 is 25 nM.

**Q.** And the IC50 [3]?
**A.** The IC50 was 1.3 nM.

**Q.** For `NC(=O)c1cccc2c(N[C@H](CN3CCC3)c3cccc(F)c3)ncnc12`, which IC50 [2] is on record?
**A.** The IC50 was 76 nM.

**Q.** And the IC50 [3]?
**A.** The IC50 was 2.4 nM.

**Q.** With `NC(=O)c1cccc2c(N[C@H](CN3CCC3)c3ccc(Cl)c(F)c3)ncnc12` as the compound, how does the IC50 [1] read?
**A.** The IC50 was 10 nM.

**Q.** And the IC50 [2]?
**A.** The IC50 was 43 nM.

**Q.** What about the IC50 [3] of the same compound?
**A.** The IC50 was 2 nM.

**Q.** What about the IC50 [4] of the same compound?
**A.** The IC50 was 75 nM.

**Q.** What does the source list for `NC(=O)c1cccc2c(N[C@H](CN3CCC3)c3cccc(C(F)(F)F)c3)ncnc12`?
**A.** IC50 [1]: 6 nM; IC50 [2]: 56 nM

**Q.** Which results are given for `CNC[C@@H](Nc1ncnc2c(C(N)=O)cccc12)c1cccc(F)c1`?
**A.** CL [5]: 21 mL/min; half-life [6]: 2.1 h; CL [7]: 11 mL/min; IC50 [1]: 4 nM; fraction unbound [8]: 0.23; inhibition at 10 µM [9]: 26%; Papp A→B [10]: 16 ×10⁻⁶ cm/s; CL [11]: 29 mL/min; bioavailability [12]: 33%; clearance [13]: 29 mL/min/kg; IC50 [2]: 45 nM; Therm_solubility [14]: 64 mg/mL; fraction unbound [15]: 0.22; IC50 [16]: 197 nM; IC50 [17]: 3600 nM; IC50 [4]: 4 nM; fraction unbound [18]: 0.15

**Q.** With `NC(=O)c1cccc2c(NCc3ccc4c(c3)OCO4)ccnc12` as the compound, how does the IC50 [1] read?
**A.** The IC50 was over 10000 nM.

**Q.** Which results are given for `NC(=O)c1cccc2c(NCc3ccc4c(c3)OCO4)nccc12`?
**A.** IC50 [1]: > 10000 nM; IC50 [3]: > 10000 nM

**Q.** With `CNCCC(Nc1ncnc2c(C(N)=O)cccc12)c1ccccc1` (stereo unspecified) as the compound, how does the IC50 [3] read?
**A.** Its IC50 is 160 nM.

**Q.** Which IC50 [3] does the source give for `c1ccc(CNc2ncnc3ccccc23)cc1` here?
**A.** Its IC50 is over 10000 nM.

**Q.** With `NC(=O)c1cccc2c(N[C@H](CN3CCCC3)c3ccccc3)ncnc12` as the compound, how does the IC50 [2] read?
**A.** Its IC50 is 9.17 nM.

**Q.** For `NC(=O)c1cccc2c(N[C@H](CN3CCC3)c3ccc(F)c(F)c3)ncnc12`, which IC50 [1] is on record?
**A.** Its IC50 is 4 nM.

**Q.** And the IC50 [2]?
**A.** Its IC50 is 74 nM.

**Q.** What about the IC50 [3] of the same compound?
**A.** The IC50 was 1 nM.

**Q.** Which IC50 [1] does the source give for `NC(=O)c1cccc2c(N[C@H](CN3CCC3)c3ccc(F)c(C(F)(F)F)c3)ncnc12` here?
**A.** The IC50 was 6 nM.

**Q.** And the IC50 [2]?
**A.** Its IC50 is 43 nM.

**Q.** And the IC50 [3]?
**A.** Its IC50 is 2.9 nM.

**Q.** What about the IC50 [4] of the same compound?
**A.** The IC50 was 233 nM.

**Q.** For `CNC(=O)c1cccc2c(NCc3ccc4c(c3)OCO4)ncnc12`, which IC50 [3] is on record?
**A.** The IC50 was over 10000 nM.

**Q.** What does the source list for `NC(=O)c1cccc2c(N[C@H](CN3CCC3)c3ccc(F)cc3)ncnc12`?
**A.** IC50 [2]: 103 nM; IC50 [3]: 8 nM

**Q.** For `NC(=O)c1cccc2c(N[C@H](CN3CCC3)c3ccc(Cl)c(C(F)(F)F)c3)ncnc12` [RUPITASERTIB], which CL [5] is on record?
**A.** Its CL is 31 mL/min.

**Q.** And the half-life [6]?
**A.** Its half-life is 4.3 h.

**Q.** What about the half-life [19] of the same compound?
**A.** The half-life was 3.9 h.

**Q.** And the clearance [20]?
**A.** The clearance was 20 mL/min/kg.

**Q.** And the bioavailability [21]?
**A.** Its bioavailability is 15%.

**Q.** And the CL [7]?
**A.** The CL was 30 mL/min.

**Q.** What about the IC50 [1] of the same compound?
**A.** The IC50 was 4 nM.

**Q.** And the fraction unbound [8]?
**A.** Its fraction unbound is 0.05.

**Q.** What about the Vd [22] of the same compound?
**A.** Its Vd is 7.43 L/kg.

**Q.** And the clearance [23]?
**A.** The clearance was 15 mL/min/kg.

**Q.** What about the Papp A→B [10] of the same compound?
**A.** Its Papp A→B is 12.1 ×10⁻⁶ cm/s.

**Q.** What about the CL [11] of the same compound?
**A.** Its CL is 37 mL/min.

**Q.** What about the bioavailability [12] of the same compound?
**A.** The bioavailability was 43%.

**Q.** What about the bioavailability [24] of the same compound?
**A.** Its bioavailability is 36%.

**Q.** What about the efflux ratio [25] of the same compound?
**A.** The efflux ratio was 1.5.

**Q.** And the bioavailability [26]?
**A.** Its bioavailability is 44%.

**Q.** And the Vd [27]?
**A.** Its Vd is 14.3 L/kg.

**Q.** And the clearance [13]?
**A.** The clearance was 25 mL/min/kg.

**Q.** And the IC50 [2]?
**A.** Its IC50 is 11 nM.

**Q.** And the half-life [28]?
**A.** Its half-life is 10.1 h.

**Q.** What about the Vd [29] of the same compound?
**A.** The Vd was 17.6 L/kg.

**Q.** What about the fraction unbound [15] of the same compound?
**A.** Its fraction unbound is 0.03.

**Q.** And the Vd [30]?
**A.** Its Vd is 9.88 L/kg.

**Q.** What about the half-life [31] of the same compound?
**A.** Its half-life is 4.1 h.

**Q.** What about the IC50 [3] of the same compound?
**A.** Its IC50 is 1.1 nM.

**Q.** And the clearance [32]?
**A.** Its clearance is 51.7 mL/min/kg.

**Q.** What about the IC50 [4] of the same compound?
**A.** Its IC50 is 170 nM.

**Q.** What about the logP [33] of the same compound?
**A.** The logP was 2.4.

**Q.** And the fraction unbound [18]?
**A.** Its fraction unbound is 0.05.

**Q.** What does the source list for `CNC[C@@H](Nc1nc(C(F)(F)F)nc2c(C(N)=O)cccc12)c1cccc(F)c1`?
**A.** IC50 [1]: 400 nM; IC50 [3]: 30 nM; IC50 [4]: > 1000 nM

**Q.** With `NC(=O)c1cccc2c(N[C@H](CN3CCCC3)c3cccc(F)c3)ncnc12` as the compound, how does the IC50 [1] read?
**A.** Its IC50 is 563 nM.

**Q.** What about the IC50 [2] of the same compound?
**A.** The IC50 was over 1000 nM.

**Q.** What about the IC50 [3] of the same compound?
**A.** The IC50 was 65 nM.

**Q.** And the IC50 [4]?
**A.** Its IC50 is 45 nM.

**Q.** For `CNC[C@H](Nc1ncnc2c(C(N)=O)cccc12)c1cccc(F)c1`, which IC50 [2] is on record?
**A.** Its IC50 is 702 nM.

**Q.** Which IC50 [2] does the source give for `NC(=O)c1cccc2c(N[C@H](CN3CCC3)c3ccc(C(F)(F)F)cc3)ncnc12` here?
**A.** The IC50 was 28 nM.

**Q.** What about the IC50 [3] of the same compound?
**A.** The IC50 was 1 nM.

**Q.** With `O=C(O)c1cccc2c(NCc3ccc4c(c3)OCO4)ncnc12` as the compound, how does the IC50 [3] read?
**A.** Its IC50 is over 10000 nM.

**Q.** What does the source list for `CNC[C@@H](Nc1nc(C)nc2c(C(N)=O)cccc12)c1cccc(F)c1`?
**A.** IC50 [1]: 44 nM; IC50 [2]: 72 nM; IC50 [3]: 2 nM; IC50 [4]: 6 nM

**Q.** For `CNCC(Nc1ncnc2c(C(N)=O)cccc12)c1cccc(F)c1` (racemic), which IC50 [1] is on record?
**A.** The IC50 was 15 nM.

**Q.** And the IC50 [2]?
**A.** Its IC50 is 25 nM.

**Q.** And the IC50 [4]?
**A.** The IC50 was 9 nM.

**Q.** With `NC(=O)c1cccc2c(NCc3ccc4c(c3)OCO4)ncnc12` as the compound, how does the IC50 [1] read?
**A.** The IC50 was over 10000 nM.

**Q.** For `NC(=O)c1cccc2c(N[C@H](CN3CCC3)c3ccccc3)ncnc12`, which IC50 [2] is on record?
**A.** Its IC50 is 1.6 nM.

**Q.** And the IC50 [3]?
**A.** Its IC50 is 6.2 nM.

**Q.** Which IC50 [1] does the source give for `CCc1nc(N[C@H](CNC)c2cccc(F)c2)c2cccc(C(N)=O)c2n1` here?
**A.** The IC50 was 212 nM.

**Q.** What about the IC50 [2] of the same compound?
**A.** The IC50 was 183 nM.

**Q.** And the IC50 [3]?
**A.** The IC50 was 2 nM.

**Q.** And the IC50 [4]?
**A.** Its IC50 is 51 nM.

**Q.** With `COC(=O)c1cccc2c(NCc3ccc4c(c3)OCO4)ncnc12` as the compound, how does the IC50 [3] read?
**A.** The IC50 was over 10000 nM.

**Q.** With `CN(Cc1ccccc1)c1ncnc2c(C(N)=O)cccc12` as the compound, how does the IC50 [3] read?
**A.** Its IC50 is 973 nM.

**Q.** With `CN(C)C(=O)c1cccc2c(NCc3ccc4c(c3)OCO4)ncnc12` as the compound, how does the IC50 [3] read?
**A.** Its IC50 is over 10000 nM.
